The results in this text go back to US7402589B2, “Tri-substituted ureas as cytokine inhibitors” (The Procter & Gamble Company, priority 2004, dated 2008).

Molecules are shown by their SMILES.

This assay relates to TNF-α. The assay can be described thus: TNF-α inhibition in lipopolysaccharide (LPS) stimulated human monocytic cells (THP-1). In kind it is cell-based. As to conditions: LPS (1 μg/mL) stimulated THP-1 cells, 4 hours, human TNF-α by ELISA. From the text:
In addition, Tumor Necrosis Factor, TNF-α, inhibition can be measured by utilizing lipopolysaccharide (LPS) stimulated human monocytic cells (THP-1) as described in: • i) K. M. Mohler et al., “Protection Against a Lethal Dose of Endotoxin by an Inhibitor of Tumour Necrosis Factor Processing”, Nature, 370, pp 218-220 (1994). • ii) U.S. Pat. No. 6,297,381 B1 Cirillo et al., issued Oct. 2, 2001, incorporated by reference and reproduced herein below in relevant portion thereof.
The inhibition of cytokine production can be observed by measuring inhibition of TNF-α in lipopolysaccharide stimulated THP cells. All cells and reagents are diluted in RPMI 1640 with phenol red and L-glutamine, supplemented with additional L-glutamine (total: 4 mM), penicillin and streptomycin (50 units/mL each) and fetal bovine serum (FBS 3%) (GIBCO, all conc. Final). Assay is performed under sterile conditions, only test compound preparation is non-sterile. Initial stock solutions are made in DMSO followed by dilution into RPMI 1640 2-fold higher than the desired final assay concentration. Confluent THP.1 cells (2×10^7 cells/mL, final conc.; American Type Culture Company, Rockville, Md.) are added to 96 well polypropylene round bottomed culture plates (Costar 3790; sterile) containing 125 μL test compound (2-fold concentrated) or DMSO vehicle (controls, blanks). DMSO concentration should not exceed 0.2% final. Cell mixture is allowed to preincubate for 15 minutes at 37° C., 5% CO2 prior to stimulation with lipopolysaccharide (LPS, 1 μg/mL final; Sigma L-2630, from E. coli serotype 0111.B4; stored as 1 mg/mL stock in endotoxin screened diluted H2O vehicle at −80° C.). Blanks (unstimulated) receive H2O vehicle; final incubation volume is 250 μL. Incubation (4 hours) proceeds as described above. Assay is to be terminated by centrifuging plates 5 minutes at room temperature, 1600 rpm […]; supernatants are then transferred to clean 96 well plates and stored at −80° C. until analyzed for human TNF-α by a commercially available ELISA kit (Biosource #KHC3015, Camarillo, Calif.). The calculated IC50 value is the concentration of the test compound that caused a 50% decrease in the maximal TNF-α production.
A general note: In an ELISA, binding on a coated surface is turned into a signal by an enzyme label.
For the compound `CCOc1ccc(N(C(=O)NCc2ccccc2Cl)c2ccnc(N[C@@H](C)COC)n2)cc1` [1-(4-Ethoxyphenyl)-1-{2-[(1S)-2-methoxy-1-methyl-ethylamino]-pyrimidin-4-yl}-3-(2-chlorobenzyl)-urea], inhibition was half-maximal at 56 nM (IC50).

For `O=C(NCc1ccccc1Cl)N(c1ccc(F)cc1)c1ccnc(NC2CCOCC2)n1` [1-(4-Fluorophenyl)-1-[2-(tetrahydropyran-4-ylamino)-pyrimidin-4-yl]-3-(2-chlorobenzyl)-urea], the IC50 was 16 nM.

In turn, `C[C@H](Nc1nccc(N(C(=O)NCc2ccccc2Cl)c2ccc(F)cc2)n1)C(C)(C)O` [1-(4-Fluorophenyl)-1-{2-[(1S)-2-hydroxy-1,2-dimethyl-propylamino]-pyrimidin-4-yl}-3-(2-chlorobenzyl)-urea] returned an IC50 of 14 nM.

`COc1ccc(N(C(=O)NCc2ccccc2Cl)c2ccnc(N[C@@H](C)C(C)(C)O)n2)cc1` [1-(4-Methoxyphenyl)-1-{2-[(1S)-2-hydroxy-1,2-dimethyl-propylamino]-pyrimidin-4-yl}-3-(2-chlorobenzyl)-urea] displayed a concentration for half-maximal inhibition (IC50) of 9 nM.

`COc1ccc(N(C(=O)NCc2ccccc2F)c2ccnc(N[C@@H](C)C(C)(C)O)n2)cc1` [1-(4-Methoxyphenyl)-1-{2-[(1S)-2-hydroxy-1,2-dimethyl-propylamino]-pyrimidin-4-yl}-3-(2-fluorobenzyl)-urea] registered an IC50 of 13 nM.

For `COc1ccc(N(C(=O)NCc2ccccc2OC)c2ccnc(N[C@@H](C)C(C)(C)O)n2)cc1` [1-(4-Methoxyphenyl)-1-{2-[(1S)-2-hydroxy-1,2-dimethyl-propylamino]-pyrimidin-4-yl}-3-(2-methoxybenzyl)-urea], the midpoint of inhibition, the IC50, lay at 15 nM.

The compound `COc1ccc(N(C(=O)NCc2ccccc2C)c2ccnc(N[C@@H](C)C(C)(C)O)n2)cc1` [1-(4-Methoxyphenyl)-1-{2-[(1S)-2-hydroxy-1,2-dimethyl-propylamino]-pyrimidin-4-yl}-3-(2-methylbenzyl)-urea] displayed an IC50 of 37 nM.

As usually defined, the IC50 is the concentration that gives 50% inhibition. A higher IC50 goes with weaker potency.
